Reference: ChEMBL document CHEMBL1201862, “PubChem BioAssay data set” (2004)
Active and inactive are the calls of the source.

Tests used:
[1] = molecular target: Fructose-bisphosphate aldolase (Mycobacterium tuberculosis, UniProt P9WQA3); test: Fluorescence-based biochemical high throughput dose response assay for inhibitors of the fructose-bisphosphate aldolase (FBA) of M. tuberculosis.; type: functional
Galanin receptor type 3 = Galanin receptor type 3 (Homo sapiens, UniProt O60755); test: Fluorescence-based cell-based primary high throughput dose response assay to identify antagonists of the Galanin Receptor 3 (GalR3).; type: functional
cells = type: functional, cell-based; conditions: HEK-CNG
[2] = molecular target: T1, Replicative DNA helicase DnaB (Mycobacterium tuberculosis, UniProt P9WMR3); test: DnaB intein splicing inhibitors, dose response, biochemical, cell-free fluorescence (AID 449749); type: functional
T1 sequence (P9WMR3 whole entry): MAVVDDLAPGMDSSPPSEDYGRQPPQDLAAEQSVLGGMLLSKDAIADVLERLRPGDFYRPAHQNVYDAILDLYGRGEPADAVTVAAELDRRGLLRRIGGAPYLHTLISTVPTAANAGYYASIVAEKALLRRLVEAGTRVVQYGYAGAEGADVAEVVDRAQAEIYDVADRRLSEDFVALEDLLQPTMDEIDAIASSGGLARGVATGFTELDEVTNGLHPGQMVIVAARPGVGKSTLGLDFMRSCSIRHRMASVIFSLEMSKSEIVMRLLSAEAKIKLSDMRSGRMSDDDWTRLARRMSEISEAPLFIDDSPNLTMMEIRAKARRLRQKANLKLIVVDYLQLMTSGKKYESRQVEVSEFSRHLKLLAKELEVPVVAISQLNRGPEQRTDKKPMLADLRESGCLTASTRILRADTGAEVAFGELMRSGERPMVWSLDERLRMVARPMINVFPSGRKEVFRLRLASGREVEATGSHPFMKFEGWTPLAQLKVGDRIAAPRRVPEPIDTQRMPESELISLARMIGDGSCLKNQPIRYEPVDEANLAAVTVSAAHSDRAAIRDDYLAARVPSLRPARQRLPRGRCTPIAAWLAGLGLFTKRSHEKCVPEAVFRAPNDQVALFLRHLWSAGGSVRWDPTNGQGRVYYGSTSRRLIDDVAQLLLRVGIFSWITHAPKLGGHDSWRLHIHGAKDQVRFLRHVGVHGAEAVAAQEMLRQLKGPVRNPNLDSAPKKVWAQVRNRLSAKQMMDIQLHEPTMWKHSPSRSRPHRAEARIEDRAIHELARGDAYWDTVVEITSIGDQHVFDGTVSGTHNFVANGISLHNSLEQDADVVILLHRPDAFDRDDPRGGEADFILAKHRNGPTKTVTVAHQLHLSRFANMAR

Protein RecA = molecular target: T2, Protein RecA (Mycobacterium tuberculosis, UniProt P9WHJ3); test: Fluorescence Cell-Free Homogeneous Dose Retest to Identify Inhibitors of RecA-Intein Splicing Activity. [Related pubchem assays (depositor defined):AID2097, AID2223, AID489010, AID492950]; type: functional
T2 sequence (P9WHJ3 whole entry): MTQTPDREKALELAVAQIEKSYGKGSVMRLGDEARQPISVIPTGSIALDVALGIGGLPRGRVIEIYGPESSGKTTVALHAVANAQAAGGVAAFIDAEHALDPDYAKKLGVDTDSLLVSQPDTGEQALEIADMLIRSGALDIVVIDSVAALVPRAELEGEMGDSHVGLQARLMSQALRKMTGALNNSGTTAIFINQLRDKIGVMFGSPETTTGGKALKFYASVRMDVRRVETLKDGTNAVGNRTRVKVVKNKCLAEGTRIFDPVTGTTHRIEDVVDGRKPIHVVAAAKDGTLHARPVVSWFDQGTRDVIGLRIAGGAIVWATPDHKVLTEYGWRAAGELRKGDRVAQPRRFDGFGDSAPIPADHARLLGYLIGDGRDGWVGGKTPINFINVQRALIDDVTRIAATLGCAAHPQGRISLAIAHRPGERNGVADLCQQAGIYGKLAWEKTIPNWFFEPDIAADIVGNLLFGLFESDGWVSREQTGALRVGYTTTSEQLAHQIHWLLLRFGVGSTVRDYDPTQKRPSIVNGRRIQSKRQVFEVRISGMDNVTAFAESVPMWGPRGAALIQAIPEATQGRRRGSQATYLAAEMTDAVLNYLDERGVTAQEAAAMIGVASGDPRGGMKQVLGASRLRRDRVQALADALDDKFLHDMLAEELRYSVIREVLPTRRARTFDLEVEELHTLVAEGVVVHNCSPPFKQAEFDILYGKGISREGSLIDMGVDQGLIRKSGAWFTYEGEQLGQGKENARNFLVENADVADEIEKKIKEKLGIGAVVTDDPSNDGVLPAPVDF

[3] = molecular target: SWI/SNF-related matrix-associated actin-dependent regulator of chromatin subfamily A member 2 (Homo sapiens, UniProt P51531); test: Luminescence-based cell-based high throughput dose response assay to identify activators of the function of SWI/SNF related, matrix associated, actin dependent regulator of chromatin, subfamily a, member 2 (SMARCA2, BRM).; type: functional
[4] = Counterscreen for activators of the function of SWI/SNF related, matrix associated, actin dependent regulator of chromatin, subfamily a, member 2 (SMARCA2, BRM): Luminescence-based cell-based high throughput dose response assay to identify non-selective compounds using the VP16 reporter assay.; type: functional
[5] = Luminescence Cell-Based Dose Response to Identify Activators of 5'UTR Stem-Loop Driven Prion Protein mRNA Translation in H4-C Neuroglioblastoma Cells. [Related pubchem assays: 1829 (Project Summary), 1814 (Primary HTS)]; type: functional
[6] = system: Streptococcus sp. 'group A'; test: growth inhibition of control SK(-) GAS strain, dose response, counter-screen for streptokinase expression inhibitor project, luminescence, kanamycin, BacTiterGlo, confirmation (AID 1900); type: functional, organism-based
BJ [7] = test: cytotoxicity toward BJ-TERT fibroblasts, dose response, cell-based, RAS-independent, luminescence (AID 1933); type: functional; conditions: Homo sapiens
H4 = test: Luminescence Cell-Based Dose Response HTS to Identify Activators of 5'UTR Stem-Loop Driven Prion Protein mRNA Translation in H4 Neuroglioblastoma Cells. [Related pubchem assays: 1829 (Project Summary), 1814 (Primary HTS)]; type: functional; conditions: Homo sapiens
Streptokinase A = molecular target: T3, Streptokinase A (Streptococcus pyogenes serotype M1, UniProt P10520); test: S. pyogenes streptokinase expression inhibitors, potency, dose response, plasminogen activation absorbance, OD405 (AID 1914); type: functional, Streptococcus pyogenes M1 GAS;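 further: secreted streptokinase activity via plasminogen activation per viability signal from cell pellet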
T3 sequence (P10520 whole entry): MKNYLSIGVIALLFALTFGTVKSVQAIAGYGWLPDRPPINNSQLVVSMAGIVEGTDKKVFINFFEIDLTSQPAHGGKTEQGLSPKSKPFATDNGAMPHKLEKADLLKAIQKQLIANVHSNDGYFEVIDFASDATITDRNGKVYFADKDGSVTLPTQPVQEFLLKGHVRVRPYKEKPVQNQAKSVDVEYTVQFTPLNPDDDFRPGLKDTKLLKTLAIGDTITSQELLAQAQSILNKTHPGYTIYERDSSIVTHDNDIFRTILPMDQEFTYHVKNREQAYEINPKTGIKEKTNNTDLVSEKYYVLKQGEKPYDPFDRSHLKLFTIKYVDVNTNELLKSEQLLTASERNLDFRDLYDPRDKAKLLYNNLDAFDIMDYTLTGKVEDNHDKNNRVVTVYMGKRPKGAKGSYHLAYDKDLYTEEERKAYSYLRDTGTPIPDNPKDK

BJ [8] = test: cells; type: functional, cell-based; conditions: Homo sapiens
[9] = Luminescence Cell-Based Dose Response to Identify Activators of Luciferase Translation or Activity in H4-C Neuroglioblastoma Cells. [Related pubchem assays: 1829 (Project Summary), 1814 (Primary HTS)]; type: functional
Beta-lactamase [10] = molecular target: Beta-lactamase (Pseudomonas aeruginosa, UniProt Q79MP6);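 further: biochemical dose-response test of metallo-beta-lactamase enzyme inhibition, read out by epi-absorbance; purified recombinant IMP-1 metallo-beta-lactamase with nitrocefin as substrate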
[11] = Luminescence Cell-Based Dose Confirmation to Identify Activators of 5'UTR Stem-Loop Driven Alpha-Synuclein mRNA Translation in H4 Neuroglioblastoma Cells. [Related pubchem assays: 1829 (Project Summary), 1814 (Primary HTS)]; type: functional
BJ [12] = test: cytotoxicity toward BJ-TERT-LT-ST fibroblasts, dose response, cell-based, RAS-independent, luminescence (AID 1935); type: functional; conditions: Homo sapiens;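 further: BJ fibroblasts immortalized with TERT plus LT and ST oncogenes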
Beta-lactamase [13] = molecular target: Beta-lactamase (Salmonella choleraesuis (strain SC-B67), UniProt Q5J463)
[14] = cytotoxicity toward DRD oncogenic fibroblasts, dose response, cell-based, non-viral oncogenic, luminescence (AID 1934); type: functional; conditions: Homo sapiens
Streptococcus = test: Group A Streptococcus viability loss, dose response, counter-screen for streptokinase expression inhibitor project, luminescence, BacTiterGlo (AID 1915); type: functional, organism-based;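 further: potency for reduction of bacterial viability or growth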
BJ [15] = test: cytotoxicity toward Ras-transformed BJeLR fibroblasts, dose response, cell-based, alamar blue fluorescence, cherrypicked samples (AID 2631); type: functional; conditions: Homo sapiens;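 further: confirmatory dose-response assay in RAS-dependent BJ fibroblasts engineered with TERT, LT and ST, with cytotoxicity read by fluorescence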
[16] = molecular target: T4, Methionyl-tRNA synthetase, putative (Trypanosoma brucei brucei, UniProt Q38C91); type: functional, Trypanosoma brucei brucei strain 927/4 GUTat10.1
T4 sequence (Q38C91 whole entry): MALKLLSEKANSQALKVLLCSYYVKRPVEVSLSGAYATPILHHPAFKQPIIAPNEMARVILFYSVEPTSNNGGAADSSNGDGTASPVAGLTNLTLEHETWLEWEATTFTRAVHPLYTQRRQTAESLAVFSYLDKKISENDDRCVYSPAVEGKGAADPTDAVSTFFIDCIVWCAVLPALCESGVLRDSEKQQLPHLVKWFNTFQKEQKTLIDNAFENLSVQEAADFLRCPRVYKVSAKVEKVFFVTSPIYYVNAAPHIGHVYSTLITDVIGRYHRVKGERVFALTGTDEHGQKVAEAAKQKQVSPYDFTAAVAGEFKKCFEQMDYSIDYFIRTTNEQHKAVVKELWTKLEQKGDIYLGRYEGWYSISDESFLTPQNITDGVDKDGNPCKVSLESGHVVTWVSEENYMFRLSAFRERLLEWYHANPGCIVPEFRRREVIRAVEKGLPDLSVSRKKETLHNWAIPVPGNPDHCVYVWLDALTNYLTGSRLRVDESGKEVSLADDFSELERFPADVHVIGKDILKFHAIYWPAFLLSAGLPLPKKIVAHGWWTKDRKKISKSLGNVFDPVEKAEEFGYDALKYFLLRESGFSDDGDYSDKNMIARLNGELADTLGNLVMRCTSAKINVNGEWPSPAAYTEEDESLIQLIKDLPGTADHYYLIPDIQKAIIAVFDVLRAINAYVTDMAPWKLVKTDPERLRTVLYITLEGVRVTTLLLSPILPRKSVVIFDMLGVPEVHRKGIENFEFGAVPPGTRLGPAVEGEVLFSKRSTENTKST

[17] = Counterscreen for inhibitors of Trypanosoma brucei methionyl tRNA synthetase (MetRS): Luminescence-based cell-based high throughput dose response assay to identify compounds that are cytotoxic to Jurkat human T lymphocyte cells.; type: functional
[18] = molecular target: T4, Methionyl-tRNA synthetase, putative; type: functional, Trypanosoma brucei brucei strain 927/4 GUTat10.1; remark: listed apart in the source
Cytochrome P450 2D6 = Cytochrome P450 2D6 (Homo sapiens, UniProt P10635);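 further: CYP2D6 member of a cytochrome P450 panel assay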
Cytochrome P450 3A4 = Cytochrome P450 3A4 (Homo sapiens, UniProt P08684);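 further: CYP3A4 tested as one member of a cytochrome P450 panel screen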
Cytochrome P450 2C9 = Cytochrome P450 2C9 (Homo sapiens, UniProt P11712)
HEK293 [19] = test: cells; conditions: Homo sapiens
HEK293 [20] = test: cells; conditions: Homo sapiens; remark: listed apart in the source

Sequence of Galanin receptor type 3 (O60755 whole entry): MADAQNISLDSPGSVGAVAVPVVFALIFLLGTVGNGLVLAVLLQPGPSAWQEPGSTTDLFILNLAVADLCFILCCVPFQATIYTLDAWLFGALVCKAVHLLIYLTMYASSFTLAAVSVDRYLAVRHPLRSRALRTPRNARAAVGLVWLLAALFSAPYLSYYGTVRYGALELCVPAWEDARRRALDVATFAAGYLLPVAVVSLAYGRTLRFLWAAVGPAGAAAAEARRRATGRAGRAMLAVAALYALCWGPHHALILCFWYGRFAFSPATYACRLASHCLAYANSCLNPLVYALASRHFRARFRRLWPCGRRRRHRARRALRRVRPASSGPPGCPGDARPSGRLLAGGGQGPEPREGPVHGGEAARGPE
Sequence of Fructose-bisphosphate aldolase (P9WQA3 whole entry): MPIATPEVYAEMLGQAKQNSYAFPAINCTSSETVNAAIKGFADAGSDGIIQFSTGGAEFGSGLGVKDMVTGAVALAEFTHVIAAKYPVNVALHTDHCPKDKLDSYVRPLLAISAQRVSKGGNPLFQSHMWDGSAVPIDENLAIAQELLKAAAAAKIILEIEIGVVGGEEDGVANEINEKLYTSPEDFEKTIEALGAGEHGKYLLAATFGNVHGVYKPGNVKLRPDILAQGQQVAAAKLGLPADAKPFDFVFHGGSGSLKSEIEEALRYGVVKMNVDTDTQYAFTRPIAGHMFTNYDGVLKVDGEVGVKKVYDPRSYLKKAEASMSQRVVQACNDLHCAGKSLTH
Sequence of SWI/SNF-related matrix-associated actin-dependent regulator of chromatin subfamily A member 2 (P51531 whole entry): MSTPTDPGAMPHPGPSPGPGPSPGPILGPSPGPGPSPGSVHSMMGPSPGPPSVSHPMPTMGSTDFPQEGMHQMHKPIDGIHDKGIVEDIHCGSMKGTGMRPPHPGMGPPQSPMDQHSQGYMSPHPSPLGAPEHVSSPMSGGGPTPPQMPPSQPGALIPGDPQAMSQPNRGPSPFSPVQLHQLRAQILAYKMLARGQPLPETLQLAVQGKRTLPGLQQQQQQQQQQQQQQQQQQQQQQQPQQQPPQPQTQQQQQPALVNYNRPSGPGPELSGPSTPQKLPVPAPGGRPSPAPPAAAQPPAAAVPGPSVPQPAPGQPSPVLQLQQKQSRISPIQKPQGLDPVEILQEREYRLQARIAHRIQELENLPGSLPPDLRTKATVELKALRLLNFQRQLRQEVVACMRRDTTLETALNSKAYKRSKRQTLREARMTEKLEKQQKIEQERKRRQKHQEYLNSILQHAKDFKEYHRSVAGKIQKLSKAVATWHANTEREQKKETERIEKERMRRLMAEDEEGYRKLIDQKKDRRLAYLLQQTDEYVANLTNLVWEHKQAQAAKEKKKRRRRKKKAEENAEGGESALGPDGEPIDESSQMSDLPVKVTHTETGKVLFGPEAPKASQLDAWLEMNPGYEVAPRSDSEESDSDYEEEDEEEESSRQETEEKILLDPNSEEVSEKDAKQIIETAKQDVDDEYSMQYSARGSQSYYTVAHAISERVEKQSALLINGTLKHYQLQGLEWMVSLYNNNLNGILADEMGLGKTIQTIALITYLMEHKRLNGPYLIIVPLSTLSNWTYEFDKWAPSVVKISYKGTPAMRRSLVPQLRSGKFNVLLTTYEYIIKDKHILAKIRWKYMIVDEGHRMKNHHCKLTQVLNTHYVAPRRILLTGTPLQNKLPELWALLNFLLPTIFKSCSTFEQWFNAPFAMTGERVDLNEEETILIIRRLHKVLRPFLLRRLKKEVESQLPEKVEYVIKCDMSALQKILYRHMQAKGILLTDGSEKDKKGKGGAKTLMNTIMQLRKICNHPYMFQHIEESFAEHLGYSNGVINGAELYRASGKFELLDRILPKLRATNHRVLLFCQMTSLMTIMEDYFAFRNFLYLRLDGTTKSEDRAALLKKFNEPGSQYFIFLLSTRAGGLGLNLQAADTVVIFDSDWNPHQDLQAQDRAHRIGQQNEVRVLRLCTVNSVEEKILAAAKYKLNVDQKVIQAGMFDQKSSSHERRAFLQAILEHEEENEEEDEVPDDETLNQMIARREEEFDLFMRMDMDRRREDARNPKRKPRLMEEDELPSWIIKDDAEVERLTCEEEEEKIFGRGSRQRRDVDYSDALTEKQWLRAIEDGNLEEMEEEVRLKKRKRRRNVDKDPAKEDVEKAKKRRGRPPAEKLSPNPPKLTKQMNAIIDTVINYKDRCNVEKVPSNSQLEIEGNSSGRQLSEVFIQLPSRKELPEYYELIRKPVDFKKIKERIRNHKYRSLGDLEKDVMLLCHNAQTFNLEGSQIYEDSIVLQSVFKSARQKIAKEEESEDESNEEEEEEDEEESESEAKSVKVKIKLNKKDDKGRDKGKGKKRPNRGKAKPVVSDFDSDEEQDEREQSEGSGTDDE
Sequence of Beta-lactamase (Pseudomonas aeruginosa, UniProt Q79MP6) (Q79MP6 whole entry): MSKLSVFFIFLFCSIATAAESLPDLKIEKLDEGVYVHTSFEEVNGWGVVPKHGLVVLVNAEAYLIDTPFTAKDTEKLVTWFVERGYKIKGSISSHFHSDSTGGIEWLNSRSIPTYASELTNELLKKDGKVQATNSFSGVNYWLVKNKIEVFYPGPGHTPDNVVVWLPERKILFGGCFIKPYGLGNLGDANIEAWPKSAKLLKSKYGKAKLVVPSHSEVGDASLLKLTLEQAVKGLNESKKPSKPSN
Sequence of Cytochrome P450 2C9 (P11712 whole entry): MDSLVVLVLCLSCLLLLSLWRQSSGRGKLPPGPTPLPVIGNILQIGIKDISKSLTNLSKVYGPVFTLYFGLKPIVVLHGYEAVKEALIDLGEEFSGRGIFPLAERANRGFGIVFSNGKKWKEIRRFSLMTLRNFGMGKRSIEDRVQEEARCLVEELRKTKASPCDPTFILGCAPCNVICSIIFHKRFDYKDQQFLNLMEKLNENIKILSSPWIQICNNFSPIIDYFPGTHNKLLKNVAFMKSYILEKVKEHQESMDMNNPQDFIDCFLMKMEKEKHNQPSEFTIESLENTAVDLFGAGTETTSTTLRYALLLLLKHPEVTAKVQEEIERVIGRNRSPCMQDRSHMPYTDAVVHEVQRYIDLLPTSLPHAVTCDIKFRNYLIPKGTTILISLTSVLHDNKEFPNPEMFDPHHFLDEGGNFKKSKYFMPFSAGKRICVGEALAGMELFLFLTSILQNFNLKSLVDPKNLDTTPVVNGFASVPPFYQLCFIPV
Sequence of Cytochrome P450 3A4 (P08684 whole entry): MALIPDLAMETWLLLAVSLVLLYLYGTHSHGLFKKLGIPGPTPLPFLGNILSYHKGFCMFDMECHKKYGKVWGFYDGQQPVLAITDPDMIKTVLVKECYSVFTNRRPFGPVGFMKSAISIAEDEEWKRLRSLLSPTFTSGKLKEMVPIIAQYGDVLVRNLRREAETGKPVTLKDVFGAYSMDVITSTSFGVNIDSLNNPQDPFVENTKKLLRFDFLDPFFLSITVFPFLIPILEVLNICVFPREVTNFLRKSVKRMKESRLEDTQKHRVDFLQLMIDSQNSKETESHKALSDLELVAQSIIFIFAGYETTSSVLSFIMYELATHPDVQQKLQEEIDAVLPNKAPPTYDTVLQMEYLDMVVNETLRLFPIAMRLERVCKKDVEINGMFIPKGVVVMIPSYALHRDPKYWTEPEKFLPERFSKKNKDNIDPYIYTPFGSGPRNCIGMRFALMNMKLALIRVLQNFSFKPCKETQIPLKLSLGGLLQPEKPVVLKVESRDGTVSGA
Sequence of Beta-lactamase (Salmonella choleraesuis (strain SC-B67), UniProt Q5J463) (Q5J463 whole entry): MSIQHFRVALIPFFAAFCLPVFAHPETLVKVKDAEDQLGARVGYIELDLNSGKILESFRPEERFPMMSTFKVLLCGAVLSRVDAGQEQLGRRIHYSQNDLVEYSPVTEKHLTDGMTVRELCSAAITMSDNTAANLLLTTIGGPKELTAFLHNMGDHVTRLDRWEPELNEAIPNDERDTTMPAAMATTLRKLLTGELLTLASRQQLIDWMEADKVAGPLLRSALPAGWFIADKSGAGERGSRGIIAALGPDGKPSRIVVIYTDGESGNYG
Sequence of Cytochrome P450 2D6 (P10635 whole entry): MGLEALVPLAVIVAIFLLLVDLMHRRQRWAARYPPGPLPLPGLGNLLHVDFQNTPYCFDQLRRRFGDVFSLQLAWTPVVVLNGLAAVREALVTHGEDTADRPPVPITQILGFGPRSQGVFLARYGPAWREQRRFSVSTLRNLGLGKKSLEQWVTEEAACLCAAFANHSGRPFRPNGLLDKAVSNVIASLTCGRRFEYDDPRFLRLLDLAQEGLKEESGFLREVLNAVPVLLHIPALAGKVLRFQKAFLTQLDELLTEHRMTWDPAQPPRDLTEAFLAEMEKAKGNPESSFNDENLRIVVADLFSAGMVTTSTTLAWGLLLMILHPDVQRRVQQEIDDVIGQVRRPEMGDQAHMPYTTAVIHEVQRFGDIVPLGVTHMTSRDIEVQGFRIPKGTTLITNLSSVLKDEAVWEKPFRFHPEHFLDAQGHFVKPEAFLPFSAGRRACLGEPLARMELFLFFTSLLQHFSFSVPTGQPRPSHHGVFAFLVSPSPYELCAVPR

Cc1nn(-c2ccccc2)c(O)c1/C=N/c1cnc2ccccc2c1
IC50 [1]: > 3.33 µM (active)

CN(Cc1ccc2c(c1)CCCN2C)C(=O)[C@H]1O[C@@H](n2cnc3c(N)ncnc32)[C@H](O)[C@@H]1O
IC50 (Galanin receptor type 3): 3.97 µM (active) | EC50 (cells): > 29.9 µM (inactive)

Brc1ccc(Cn2c(-c3ccc(Br)o3)nc3ccccc32)o1
AC50 [2]: 147 µM (active) | EC50 (Protein RecA): 9.48 µM (active) | EC50 [3]: > 91.2 µM (inactive) | EC50 [4]: > 91.2 µM (inactive)

CCC(/C=C1\Sc2ccc3ccccc3c2N1C)=C\c1sc2ccc3ccccc3c2[n+]1C
EC50 [5]: > 12 µM (not active) | EC50 [6]: 3.13 µM (active) | EC50 (BJ [7]): 0.164 µM (active) | EC50 (H4): > 120 µM (not active) | EC50 (Streptokinase A): > 150 µM (not active) | EC50 (BJ [8]): 0.352 µM (inconclusive) | EC50 [9]: > 12 µM (not active) | IC50 (Beta-lactamase [10]): > 59.6 µM (inactive) | EC50 [11]: 3.46 µM (inconclusive) | EC50 (BJ [12]): 0.343 µM (inconclusive) | IC50 (Beta-lactamase [13]): > 59.6 µM (inactive) | EC50 [14]: 0.395 µM (active) | EC50 (Streptococcus): 15.5 µM (active) | EC50 (BJ [15]): < 0.104 µM (active)

O=C(NCCc1ccc(Cl)cc1)Nc1ccc(Cl)cc1
IC50 [16]: 119 µM (inactive) | IC50 [17]: 83.3 µM (inactive) | IC50 [18]: 2.58 µM (active)

N#CCSc1nc(N)c(C#N)c(C2CCCCC2)c1C#N
IC50 (Galanin receptor type 3): 2.17 µM (active) | EC50 (cells): > 29.9 µM (inactive) | AC50 (Cytochrome P450 2D6): 39.8 µM (inconclusive) | AC50 (Cytochrome P450 3A4): 3.16 µM (inconclusive) | AC50 (Cytochrome P450 2C9): 12.6 µM (inconclusive) | EC50 (HEK293 [19]): > 59.6 µM (inactive) | EC50 (HEK293 [20]): > 59.6 µM (inactive)

CS(=O)(=O)c1ccc(Cl)c(NC(=O)c2ccc(-n3cncn3)c([N+](=O)[O-])c2)c1
IC50 [16]: 7.04 µM (active) | IC50 [17]: 83.3 µM (inactive) | IC50 [18]: 2.13 µM (active)

CCc1cc(=O)oc2cc(C)cc(OC(C)C(=O)NC3CCN(Cc4ccccc4)CC3)c12 (stereo not given)
IC50 [1]: 1.52 µM (active)
